Data taken from patent EP0172917A1, “AGENTS FOR TREATING IMMUNODEFICIENCY, METHOD FOR TREATING THEM, AND USE THEREOF” (Yoshitomi Pharmaceutical Industries, Ltd., priority 1984, dated 1985).

How the values were obtained:
peritoneal macrophages = experiment: Stimulative effect on phagocytosis of macrophages; format: cell-based, rats; conditions: rat peritoneal macrophages
Protocol: (§1) Effect of Compound (I) on phagocytosis was examined using rat peritoneal leukocytes according to the method of Stossel et al described in Journal of Clinical Investigation, vol. 51, p. 615 (1972).
Casein sodium was injected intraperitoneally into rats. Three days later, peritoneal macrophages were harvested. Phagocytosis was assessed by the same procedures as shown in Experiment 3.

male Wistar rats = experiment: Acute toxicity in rats (LD50, Probit method); format: in vivo; conditions: after one week, 10080 min
Protocol: (§2) Compound (I) was administered orally or intraperitoneally to groups of 8 male Wistar rats weighing about 200 g. After one week, acute toxicity (LD50 value) was determined by Probit method.

male dd-strain mice = experiment: Acute toxicity in mice (LD50); format: in vivo; conditions: 10080 min
Protocol: as §2
LD50 values of Compound (I) in groups of 10 male dd-strain mice weighing 20-25 g were also determined.

MeHSA-induced DTH [1] = experiment: Stimulative effect on cell-mediated immunity: MeHSA-induced delayed type hypersensitivity, footpad thickness; format: in vivo, C57BL/6 mice; conditions: for DTH (mm) (mean ± standard error): C57BL/6 mice, control 0.21±0.02; for % increase: DTH vs control
Protocol: (§3) Eight week-old female C57BL/6 mice were injected subcutaneously in the back with 0.1 ml of a 0.25% methylated human serum albumin (hereinafter referred to as MeHSA). Compound (I) was administered orally for 4 consecutive days from the day of the sensitization. One hour after the last administration of Compound (I), 0.025 ml of a 0.1% MeHSA solution was injected subcutaneously on the left hind^paw. The thickness of footpad was measured the 24 hours after the injection using a dissecting microscope by the method of Baba et al [Acta Pathology Japan, vol. 27, p. 165 (1977)]. The difference between the thickness of footpad before and after the injection of MeHSA was expressed as the delayed type hypersensitivity (hereinafter referred to as DTH).

[2] = tested on: spontaneous rosette forming cells; experiment: Stimulative effect on reduced cell-mediated immunity: spontaneous rosette forming cells in thymus of SHR; format: in vivo, spontaneous hypertensive rats; conditions: for Ratio (%) of S-RFC (mean ± standard error): SHR, control 46.7±2.9; for % increase: S-RFC ratio vs control
Protocol: Twenty-four hours after the last administration, thymus was removed and cell suspension was prepared. The numbers of spontaneous rosette forming cells (hereinafter referred to as S-RFC) were measured the method of Takeichi and Boone [Cellular Immunology, vol. 27, p.

[3] = tested on: natural thymotoxic autoantibody; experiment: Inhibitory effect on the production of autoantibody (NTA); format: in vivo, NZB/W F1 mice; conditions: 30 mg/kg orally three times every week
Protocol: To 4 week-old female NZB/W F, mice was orally administered Compound (I) three times every week and, at 7 week-old mice blood was gathered from the eyegrounds and the serum was separated. The detection of natural thymotoxic autoantibody (hereinafter referred to as NTA) was performed by the method of Takeichi et al [Cellular Immunology, vol. 60, p. 181 (1981)].

[4] = tested on: rat peritoneal leukocytes; experiment: Stimulative effect on phagocytosis of leukocytes; format: cell-based
Source text: as §1

MeHSA-induced DTH [5] = experiment: Immunosuppressive effect: MeHSA-induced DTH in higher responder strain; format: in vivo, BALB/c mice; conditions: for DTH (mm) (mean ± standard error): BALB/c mice, control 0.96±0.09; for % inhibition: DTH vs control
Protocol: as §3
Effect of Compound (I) on the MeHSA-induced DTH was examined in 10 week-old female BALB/c mice, higher responder strain to the MeHSA-induced DTH, by the same procedures as described in Experiment 5.

[6] = tested on: thymus-rossete forming cells (RFC); experiment: Restorative effect on reduced immune response: thymus RFC in cyclophosphamide-pretreated mice; format: in vivo, BALB/c mice; conditions: for Ratio (%) of RFC (mean ± standard error): BALB/c mice; for % decrease: RFC ratio vs control
Protocol: (§4) Six week-old female C57BL/6 mice were immunized with the intraperitoneal administration of 5 x 10^8 sheep red blood cells. […] On the 4th day after immunization, the numbers of thymus-rossete forming cells (RFC) in mice were assessed by the method of Bach et al [Cellular Immunology, vol. 3, p. […] Viable thymus lymphocytes which attached to four or more sheep red blood cells were determined as RFC. In control group, 0.5% methylcellulose solution was orally administered into mice.
The same procedures as shown in Experiment 1 were performed except that six week-old female BALB/c mice were immunized with 5 x 10^8 sheep red blood cells and 20 mg/kg cyclophosphamide was orally administered to mice the day before and on immunization.

[7] = tested on: thymus-rossete forming cells (RFC); experiment: Stimulative effect on immune response: thymus rosette forming cells after sheep red blood cell immunization; format: in vivo, C57BL/6 mice; conditions: for Ratio (%) of RFC (mean ± standard error): C57BL/6 mice, control 1.06±0.31; for % increase: RFC ratio vs control
Protocol: as §4

## CCN(CC)CCN1CCC2(CC1)SCC(=O)N2c1ccccc1.Cl.Cl.O [Compound (I), 8-(2-diethylaminoethyl)-3-oxo-4-phenyl-l-thia-4,8-diazaspiro-[4.5]decane dihydrochloride monohydrate]
Peritoneal macrophages; 10 µM
  % increase of phagocytosis: 12.5%
Peritoneal macrophages; 100 µM
  % increase of phagocytosis: 30.6%
Male Wistar rats; intraperitoneal
  LD50: 827 mg/kg
Male Wistar rats; oral
  LD50: >8,000 mg/kg
Male dd-strain mice; intraperitoneal
  LD50: 474 mg/kg
Male dd-strain mice; oral
  LD50: 1,841 mg/kg
MeHSA-induced DTH [1]; 10 mg/kg orally for 4 days
  DTH (mm) (mean ± standard error): 0.22±0.02 mm
MeHSA-induced DTH [1]; 100 mg/kg orally for 4 days
  DTH (mm) (mean ± standard error): 0.42±0.03 mm
MeHSA-induced DTH [1]; 300 mg/kg orally for 4 days
  DTH (mm) (mean ± standard error): 0.33±0.03 mm
MeHSA-induced DTH [1]; 10 mg/kg orally
  % increase: 5%
MeHSA-induced DTH [1]; 100 mg/kg orally
  % increase: 100%
MeHSA-induced DTH [1]; 300 mg/kg orally
  % increase: 57%
[2]; 25 mg/kg orally for 20 days
  Ratio (%) of S-RFC (mean ± standard error): 55.0±5.2%
[2]; 100 mg/kg orally for 20 days
  Ratio (%) of S-RFC (mean ± standard error): 57.8±3.6 %
[2]; 25 mg/kg orally
  % increase: 18%
[2]; 100 mg/kg orally
  % increase: 24%
[3]; dilution of serum 64, control 28.0±0.8
  NTA (%) (mean ± standard error): 9.5±0.6 %
[3]; dilution of serum 128, control 20.3±1.1
  NTA (%) (mean ± standard error): 8.7±0.5 %
[4]; 10 μM
  % increase of phagocytosis: 27.1%
[4]; 100 μM
  % increase of phagocytosis: 61.4%
MeHSA-induced DTH [5]; 3 mg/kg orally
  DTH (mm) (mean ± standard error): 0.91±0.04 mm
  % inhibition: 5%
MeHSA-induced DTH [5]; 30 mg/kg orally
  DTH (mm) (mean ± standard error): 0.77±0.03 mm
  % inhibition: 20%
MeHSA-induced DTH [5]; 300 mg/kg orally
  DTH (mm) (mean ± standard error): 0.71±0.04 mm
  % inhibition: 36%
[6]; Compound (I) 10 mg/kg orally with cyclophosphamide 20 mg/kg
  Ratio (%) of RFC (mean ± standard error): 1.78±0.80%
[6]; Compound (I) 30 mg/kg orally with cyclophosphamide 20 mg/kg
  Ratio (%) of RFC (mean ± standard error): 3.86±0.52 %
[6]; Compound (I) 100 mg/kg orally with cyclophosphamide 20 mg/kg
  Ratio (%) of RFC (mean ± standard error): 5.26±0.64 %
[6]; Compound (I) 10 mg/kg with cyclophosphamide 20 mg/kg
  % decrease: 74%
[6]; Compound (I) 30 mg/kg with cyclophosphamide 20 mg/kg
  % decrease: 43%
[6]; Compound (I) 100 mg/kg with cyclophosphamide 20 mg/kg
  % decrease: 23%
[7]; 3 mg/kg orally for 4 days
  Ratio (%) of RFC (mean ± standard error): 5.33±0.99 %
[7]; 30 mg/kg orally for 4 days
  Ratio (%) of RFC (mean ± standard error): 6.28±1.27 %
[7]; 3 mg/kg orally
  % increase: 403%
[7]; 30 mg/kg orally
  % increase: 492%

## O=P1(N(CCCl)CCCl)NCCCO1 (stereo not drawn) [Cyclophosphamide, cyclophosphamide, reference compound]
[6]; cyclophosphamide 20 mg/kg alone
  % decrease: 79%
[6]; cyclophosphamide 20 mg/kg alone, listed as cyclophosphamide
  % decrease: about 79%
[6]; cyclophosphamide 20 mg/kg orally alone, control 6.81±1.38
  Ratio (%) of RFC (mean ± standard error): 1.14±0.63%
